In patent publication US12139498B1, “Positive allosteric modulators of the muscarinic acetylcholine receptor M4” (Vanderbilt University, priority 2023, dated 2024) one finds Emax and EC50 data, which are given here for 21 compounds.

pEC50: −log10 of the molar value.

The target of the assay is T1, Human M4 (Homo sapiens, UniProt P08173).
T1 sequence (P08173 1-479): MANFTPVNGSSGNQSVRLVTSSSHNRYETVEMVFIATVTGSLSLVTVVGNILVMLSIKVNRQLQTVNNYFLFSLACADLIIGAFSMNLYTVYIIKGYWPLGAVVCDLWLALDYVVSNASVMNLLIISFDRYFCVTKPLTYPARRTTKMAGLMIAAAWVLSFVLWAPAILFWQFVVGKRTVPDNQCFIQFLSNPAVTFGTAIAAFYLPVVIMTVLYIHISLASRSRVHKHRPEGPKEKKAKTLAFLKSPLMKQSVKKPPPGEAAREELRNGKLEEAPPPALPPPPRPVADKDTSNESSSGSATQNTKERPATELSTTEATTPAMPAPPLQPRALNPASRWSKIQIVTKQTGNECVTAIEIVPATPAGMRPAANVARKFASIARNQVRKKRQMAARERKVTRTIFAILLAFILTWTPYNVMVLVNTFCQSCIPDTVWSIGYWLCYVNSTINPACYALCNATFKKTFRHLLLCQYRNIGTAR
Put plainly: M4 cell-based functional assay (calcium mobilization). The arrangement: expressed in transfected cells. The settings on record: for Emax at 30 µM: % ACh maximum at 30 μM; for pEC50: CHO-K1 hM4-Gqi5 cells, calcium flux, increase in EC20 acetylcholine response. As for the experimental part: Human (h) and rat (r) M4 CDNAs, along with the chimeric G protein Gqi5, were transfected into Chinese hamster ovary (CHO-K1) cells purchased from the American Type Culture Collection using Lipofectamine2000. The transfected cells were subjected to selection antibiotic treatment to generate stable cell lines; G418 sulfate (1 mg/ml) for selecting M4 expressing cells and Hygromycin B (500 μg/mL) for selecting Gqi5 expressing cells. The resulting polyclones were further screened to obtain monoclones of hM4-Gqi5 and rM4-Gqi5 for compound screening assay. Stable monoclone cells were maintained in Ham's F-12 medium containing 10% heat-inactivated fetal bovine serum (FBS), 1× Antibiotic/Antimycotic, 20 mM HEPES, 500 μg/mL G418 sulfate, and 200 μg/mL Hygromycin B in 37° C. humidified incubators in the presence of 5% CO2.
The high throughput assay was employed to measure receptor-induced mobilization of intracellular calcium to determine compound activity. Test compound was added to cells expressing the muscarinic receptors that were loaded with calcium sensitive fluorescent dye. After a ˜2.5 minute incubation period, a submaximal (EC20) concentration of acetylcholine was added, and the response measured. This kinetic assay allows for simultaneous screening and potency determination of multiple pharmacological modes of action including agonist and potentiator activity. CHO-K1 cells stably expressing muscarinic receptors were plated in growth medium lacking G418 and hygromycin at 15,000 cells/20 μL/well in Greiner 384-well black-walled, tissue culture (TC)-treated, clear-bottom plates (Greiner Bio-One). Cells were incubated overnight at 37° C. and 5% CO2. The next day, calcium assay buffer (Hank's balanced salt solution (HBSS), 20 mM HEPES, 2.5 mM Probenecid, 4.16 mM sodium bicarbonate (Sigma-Aldrich, St. Louis, MO)) was prepared to dilute compounds, agonists, and Fluo-4-acetomethoxyester (Fluo-4-AM), fluorescent calcium indicator dye. Compounds were serially diluted 1:3 into 10 point concentration response curves in DMSO using the Bravo Liquid Handler (Agilent, Santa Clara, CA), transferred to a 384 well daughter plates using an Echo acoustic liquid handler (Beckman Coulter, Indianapolis, Indiana), and diluted in assay Buffer to a 2× final concentration. The agonist plates were prepared using acetylcholine (ACh, Sigma-Aldrich, St. Louis, MO) concentrations for the EC20 and ECMAX responses by diluting in assay buffer to a 5× final concentration. The 2× dye solution (2.3 μM) was prepared by mixing a 2.3 mM Fluo-4-AM stock in DMSO with 10% (w/v) pluronic acid F-127 in a 1:1 ratio in assay buffer. Using a microplate washer (BioTek, Winooski, VT), cells were washed with assay buffer for 3 times to remove medium. After the final wash, 20 μL of assay buffer remained in the cell plates. Immediately, 20 μL of the 2× dye solution (final 1.15 μM) was added to each well of the cell plate using a Multidrop Combi dispenser (Thermo Fisher, Waltham, MA). After cells were incubated with the dye solutions for 45 min at 37° C. in the presence of 5% CO2, the dye solutions were removed and replaced with assay buffer using a microplate washer, leaving 20 μL of assay buffer in the cell plate.
The prepared compound, agonist, and cell plates were placed inside the Functional Drug Screening System uCell (FDSS uCell, Hamamatsu, Japan) to measure the calcium flux.
The triple add protocol was used to measure Ca kinetics; Compound, ACh for EC2O, and ACh for EC80 adds in an order. Briefly, after establishment of a fluorescence baseline for 2 seconds (excitation, 480 nm; emission, 530 nm), first add occurred by adding 20 μL of test compound to the cells, and the response was measured for 140 seconds. This is followed by second add; 10 μL (5×) of an EC20 concentration of ACh agonist was added to the cells, and the response of the cells was measured for 125 seconds. […]
(In general: Calcium assays in cells follow changes in intracellular calcium, usually with a dye or a luminescent sensor.)

For orientation: Emax means the greatest response seen or fitted, relative to the assay's reference. What is called pEC50 is the negative decadic logarithm of the EC50, by convention in mol/L. In the case of `[2H]C([2H])([2H])n1nc2nc(N3CCc4nc(C5(F)CC5)sc4C3)c(C)c(C)n2c1=O` [Compound 71, 7-(2-(1-fluorocyclopropyl)-6,7-dihydrothiazolo[5,4-c]pyridin-5(4H)-yl)-5,6-dimethyl-2-(methyl-d3)-[1,2,4]triazolo[4,3-a]pyrimidin-3(2H)-one], the Emax at 30 µM stood at 83% and the pEC50 is 8.15.
Taken in the same sequence, the figures for `Cc1nc2c(C)c(C)c(N3CCc4nc(Br)sc4C3)nn2c(=O)c1F` [Compound 37, 7-(2-bromo-6,7-dihydrothiazolo[5,4-c]pyridin-5(4H)-yl)-3-fluoro-2,8,9-trimethyl-4H-pyrimido[1,2-b]pyridazin-4-one] were 81% and 7.33.
Taken in the same sequence, the figures for `Cc1noc2ncnc(N3CCc4nc(Br)sc4C3)c12` [Compound 25, 4-(2-bromo-6,7-dihydrothiazolo[5,4-c]pyridin-5(4H)-yl)-3-methylisoxazolo[5,4-d]pyrimidine] were 113% and 5.89.
For `Cc1cc(C#N)cnc1N1CCc2nc(C3CC3)sc2C1` [Compound 16, 6-(2-cyclopropyl-6,7-dihydrothiazolo[5,4-c]pyridin-5(4H)-yl)-5-methylnicotinonitrile], the Emax at 30 µM was found to be 84% and the negative-log EC50 (pEC50) was 6.99.
Turning to `Cc1nc2c(s1)CN(c1nc3nccnc3cc1C)CC2` [Compound 57, 2-methyl-5-(7-methylpyrido[2,3-b]pyrazin-6-yl)-4,5,6,7-tetrahydrothiazolo[5,4-c]pyridine], the Emax at 30 µM is 90% and the negative-log EC50 (pEC50) is 6.18.
Taken in the same sequence, the figures for `Cc1cc2nc(C(=O)NCc3cncs3)cc(=O)n2nc1N1CCc2nc(Br)sc2C1` [Compound 42, 7-(2-bromo-6,7-dihydrothiazolo[5,4-c]pyridin-5(4H)-yl)-8-methyl-4-oxo-N-(thiazol-5-ylmethyl)-4H-pyrimido[1,2-b]pyridazine-2-carboxamide] were 87% and 6.38.
Taken in the same sequence, the figures for `Cc1cc2nc(C)c(C)c(=O)n2nc1N1CCc2nc(Br)sc2C1` [Compound 38, 7-(2-bromo-6,7-dihydrothiazolo[5,4-c]pyridin-5(4H)-yl)-2,3,8-trimethyl-4H-pyrimido[1,2-b]pyridazin-4-one] were 80% and 5.93.
For `Cc1c(N2CCc3nc(C4CC4)sc3C2)nc2nn(CC3(C#N)CC3)c(=O)n2c1C` [Compound 73, 1-((7-(2-cyclopropyl-6,7-dihydrothiazolo[5,4-c]pyridin-5(4H)-yl)-5,6-dimethyl-3-oxo-[1,2,4]triazolo[4,3-a]pyrimidin-2(3H)-yl)methyl)cyclopropane-1-carbonitrile], the Emax at 30 µM is 91% and the negative-log EC50 (pEC50) was 7.92.
For `Cc1c(N2CCc3nc(C4CC4)sc3C2)nc2n[nH]c(=O)n2c1C` [Compound 72, 7-(2-cyclopropyl-6,7-dihydrothiazolo[5,4-c]pyridin-5(4H)-yl)-5,6-dimethyl-[1,2,4]triazolo[4,3-a]pyrimidin-3(2H)-one], in that order: 91% and 8.30.
For `Cc1cc2nccnc2nc1N1CCc2nc(Cl)sc2C1` [Compound 61, 2-chloro-5-(7-methylpyrido[2,3-b]pyrazin-6-yl)-4,5,6,7-tetrahydrothiazolo[5,4-c]pyridine], in that order: 68% and 6.38.
Taken in the same sequence, the figures for `[2H]C([2H])([2H])c1nc2c(s1)CN(c1ncc(C#N)cc1C)CC2` [Compound 20, 5-methyl-6-(2-(methyl-d3)-6,7-dihydrothiazolo[5,4-c]pyridin-5(4H)-yl)nicotinonitrile] were 101% and 6.61.
Turning to `Cc1nc(Cl)c(C)c(N2CCc3nc(Nc4ccccc4F)sc3C2)n1` [Compound 14, 5-(6-chloro-2,5-dimethylpyrimidin-4-yl)-N-(2-fluorophenyl)-4,5,6,7-tetrahydrothiazolo[5,4-c]pyridin-2-amine], the Emax at 30 µM turned out to be 51% and the pEC50 is 5.28.
For `Cc1nc(Cl)c(C)c(N2CCc3nc(Br)sc3C2)n1` [Compound 11, 2-bromo-5-(6-chloro-2,5-dimethylpyrimidin-4-yl)-4,5,6,7-tetrahydrothiazolo[5,4-c]pyridine], in that order: 85% and 6.99.
For `Cc1nc(Cl)c(C)c(N2CCc3nc(C)sc3C2)n1` [Compound 9, 5-(6-chloro-2,5-dimethylpyrimidin-4-yl)-2-methyl-4,5,6,7-tetrahydrothiazolo[5,4-c]pyridine], in that order: 98% and 6.18.
Turning to `Cc1nc(N2CCc3nc(Br)sc3C2)c2cc(Cl)ccc2n1` [Compound 32, 2-bromo-5-(6-chloro-2-methylquinazolin-4-yl)-4,5,6,7-tetrahydrothiazolo[5,4-c]pyridine], the Emax at 30 µM was found to be 91% and the negative-log EC50 (pEC50) was 6.70.
Taken in the same sequence, the figures for `Cc1cc2nc(C(F)F)cc(=O)n2nc1N1CCc2nc(Br)sc2C1` [Compound 39, 7-(2-bromo-6,7-dihydrothiazolo[5,4-c]pyridin-5(4H)-yl)-2-(difluoromethyl)-8-methyl-4H-pyrimido[1,2-b]pyridazin-4-one] were 88% and 7.12.
Taken in the same sequence, the figures for `Cc1c(N2CCc3nc(C4CC4)sc3C2)nc2nn(CC3CC(F)(F)C3)c(=O)n2c1C` [Compound 76, 7-(2-cyclopropyl-6,7-dihydrothiazolo[5,4-c]pyridin-5(4H)-yl)-2-((3,3-difluorocyclobutyl)methyl)-5,6-dimethyl-[1,2,4]triazolo[4,3-a]pyrimidin-3(2H)-one] were 105% and 7.06.
For `Cc1c(C#N)nnc(N2CCc3nc(C4CC4)sc3C2)c1C` [Compound 12, 6-(2-cyclopropyl-6,7-dihydrothiazolo[5,4-c]pyridin-5(4H)-yl)-4,5-dimethylpyridazine-3-carbonitrile], in that order: 76% and 6.79.
As to `COc1nc2c(s1)CN(c1nnc(C#N)c(C)c1C)CC2` [Compound 8, 6-(2-methoxy-6,7-dihydrothiazolo[5,4-c]pyridin-5(4H)-yl)-4,5-dimethylpyridazine-3-carbonitrile], the Emax at 30 µM was 79% and the pEC50 was 6.14.
Taken in the same sequence, the figures for `Cc1cc2c(N3CCc4nc(Br)sc4C3)ncnc2s1` [Compound 24, 2-bromo-5-(6-methylthieno[2,3-d]pyrimidin-4-yl)-4,5,6,7-tetrahydrothiazolo[5,4-c]pyridine] were 102% and 7.30.
Taken in the same sequence, the figures for `Cc1cc(C#N)nnc1N1CCc2nc(Br)sc2C1` [Compound 19, 6-(2-bromo-6,7-dihydrothiazolo[5,4-c]pyridin-5(4H)-yl)-5-methylpyridazine-3-carbonitrile] were 99% and 6.07.
